Where two headings read alike, the source gives them in different places.
Experiments:
[1] = rcm bond, Hoveyda-Grubbs catalyst 2nd generation, 1,2-dichloroethane, 3 steps
[2] = test system: recombinant NL-RLuc virus (NL4-3 with Renilla Luciferase gene) in MT-2 cells; test: Inhibition of HIV replication (NL-RLuc virus, luciferase readout in MT-2 cells); format: cell-based; conditions: 5 days of incubation, 10% FBS
Excerpt: Inhibition of HIV Replication:
A recombinant NL-RLuc proviral clone was constructed in which a section of the nef gene from NL4-3 was replaced with the Renilla Luciferase gene. This virus is fully infectious and can undergo multiple cycles of replication in cell culture. In addition, the luciferous reporter provides a simple and easy method for quantitating the extent of virus growth and consequently, the antiviral activity of test compounds. The plasmid pNLRLuc contains the proviral NL-Rluc DNA cloned into pUC18 at the PvuII site. The NL-RLuc virus was prepared by transfection of 293T cells with the plasmid pNLRLuc. Transfections were performed using the LipofectAMINE PLUS kit from Invitrogen (Carlsbad, Calif.) according to the manufacturer and the virus generated was titered in MT-2 cells. For susceptibility analyses, the titrated virus was used to infect MT-2 cells in the presence of compound, and after 5 days of incubation, cells were processed and quantitated for virus growth by the amount of expressed luciferase. Assay media was RPMI 1640 supplemented with 10% heat inactivated fetal bovine serum (FBS), 100 units/ml penicillin G/100 units/ml streptomycin, 10 mM HEPES buffer pH 7.55 and 2 mM L-glutamine. The results from at least 2 experiments were used to calculate the EC50 values. Luciferase was quantitated using the Dual Luciferase kit from Promega (Madison, Wis.). Susceptibility of viruses to compounds was determined by incubation in the presence of serial dilutions of the compound. The 50% effective concentration (EC50) was calculated by using the exponential form of the median effect equation where (Fa)=1/[1+(ED50/drug conc.)^m] (Johnson V A, Byington R T. Infectivity Assay. In Techniques in HIV Research. ed. Aldovini A, Walker B D. 71-76. New York: Stockton Press. 1990).

Structure (SMILES) | EC50 [2] | EC50 ([2]; Renilla, NL43, 120 h) | further results
Cc1nc(C)c([C@H](OC(C)(C)C)C(=O)O)c2c1-c1ccc(cc1)OC(c1ccc(Cl)cc1)CCCCOC1(C)CCN2CC1 (stereo partly shown) |  |  | ring closure, yield of all isomers ([1]; from C=CCOC1(C)CCN(c2c(-c3ccc(OC(CC=C)c4ccc(Cl)cc4)cc3)c(C)nc(C)c2[C@H](OC(C)(C)C)C(=O)OCC)CC1, 6.25 mM, 70.0 °C, 0.5 h): 59.1%
Cc1nc(C)c([C@H](OC(C)(C)C)C(=O)O)c2c1-c1ccc(cc1)OC(c1ccccc1)CCCCOC1(C)CCN2CC1 (stereo partly shown) |  |  | ring closure, yield of all isomers ([1]; from C=CCOC1(C)CCN(c2c(-c3ccc(OC(CC=C)c4ccccc4)cc3)c(C)nc(C)c2[C@H](OC(C)(C)C)C(=O)OCC)CC1, 70.0 °C, 1.0 h): 63.8%
Cc1nc(C)c([C@H](OC(C)(C)C)C(=O)O)c2c1-c1ccc(cc1)OC(c1ccccc1)CCCCOC1(C)CCN2CC1 (single isomer, unassigned) [Example 3] | 854 nM |  | 
Cc1nc(C)c([C@H](OC(C)(C)C)C(=O)O)c2c1-c1ccc(cc1)OC(c1ccccc1)CCCCOC1(C)CCN2CC1 (single isomer, unassigned) [Example 4] | 349 nM |  | 
Cc1nc(C)c([C@H](OC(C)(C)C)C(=O)O)c2c1-c1ccc(cc1)OC(c1ccc(Cl)cc1)CCCCOC1(C)CCN2CC1 (single isomer, unassigned) [Example 5] |  | 466 nM | 
Cc1nc(C)c([C@H](OC(C)(C)C)C(=O)O)c2c1-c1ccc(cc1)OC(c1ccc(Cl)cc1)CCCCOC1(C)CCN2CC1 (single isomer, unassigned) [Example 6] | 496 nM |  | 
Cc1cc(CN2CCCCCCOC3(C)CCN(CC3)c3c(c(C)nc(C)c3[C@H](OC(C)(C)C)C(=O)O)-c3ccc(cc3)C2)ccc1F [Example 1, (2S)-2-(tert-Butoxy)-2-{13-[(4-fluoro-3-methylphenyl)methyl]-4,6,21-trimethyl-20-oxa-1,5,13-triazatetracyclo[19.2.2.2^8,11.0^2,7]heptacosa-2,4,6,8,10,26-hexaen-3-yl}acetic acid] |  | 87 nM | ring closure, yield of all isomers ([1]; from C=CCCCN(Cc1ccc(-c2c(C)nc(C)c([C@H](OC(C)(C)C)C(=O)OCC)c2N2CCC(C)(OCC=C)CC2)cc1)Cc1ccc(F)c(C)c1, 70.0 °C, 0.83 h): 58.9%
Cc1cc(CN2CCCCCOC3(C)CCN(CC3)c3c(c(C)nc(C)c3[C@H](OC(C)(C)C)C(=O)O)-c3ccc(cc3)C2)ccc1F [Example 2, (2S)-2-(tert-Butoxy)-2-{13-[(4-fluoro-3-methylphenyl)methyl]-4,6,20-trimethyl-19-oxa-1,5,13-triazatetracyclo[18.2.2.2^8,11.0^2,7]hexacosa-2,4,6,8,10,25-hexaen-3-yl}acetic acid] |  | 249 nM | ring closure, yield of all isomers ([1]; from C=CCOC1(C)CCN(c2c(-c3ccc(CN(CC/C=C\CC)Cc4ccc(F)c(C)c4)cc3)c(C)nc(C)c2[C@H](OC(C)(C)C)C(=O)OCC)CC1, 4.35 mM, 75.0 °C, 1.33 h): 17.2%
